Data on 27 compounds can be found in US20100234379A1, “Dual modulation of endocannabinoid transport and fatty-acid amide hydrolase for treatment of excitotoxicity” (priority 2005, published 2010).

The first series has as its system ERK and FAK (pERK2, pFAK). The experiment in a line: Activation of ERK and FAK (CB1 signaling) in hippocampal slice cultures, immunoblot. It counts as cell-based, rat. Particulars: H 10 μM.
Experimental: A: Untreated slices were used to determine basal antigen levels (lane 1), while other slices were exposed to the CB1 agonist R-methanandamide (A) in the absence (lane 2) or presence of the antagonist H (lane 3). B: Integrated optical densities for pERK2 (mean±SEM) were determined by image analysis (ANOVA: P=0.014). C: Treatment groups include control slices (lane 1) and slices treated with the FAAH inhibitor B (lane 2), the transporter inhibitor C (lane 3), the B/C combination (lane 4), or B/C with 20 μM F (lane 5). D: Image analysis data for pERK2 are shown (ANOVA: P=0.015).
Hippocampal slice cultures. Sprague-Dawley rats (Charles River Laboratories; Wilmington, Mass.) were housed following guidelines from National Institutes of Health. […] Slices were maintained in culture for a 15-20-day maturation period before experiments were initiated. Activation of extracellular signal regulated-kinase (ERK) and focal adhesion kinase (FAK). […] Other slices were treated with 100-500 nM B, 10-50 μM C, or a combination of the two in the absence or presence of either H or F (Cal-Biochem). […] Integrated optical density of the bands was determined at high resolution with BIOQUANT software (R & M Biometrics, Nashville, Tenn.). […]
For `Cc1c(C(=O)NN2CCOCC2)nn(-c2ccc(Cl)cc2Cl)c1-c1ccc(I)cc1` [H], the “prevention of the effects of agonist treatment and of B/C potentiation on ERK/FAK activation by CB1 antagonist” value was “prevented”.

Staying with this series, now noted: slices treated 30 min; A 10-50 μM; 100 nM B and 10 μM C applied individually; B/C combination.
For `CCCCC/C=C\C/C=C\C/C=C\C/C=C\CCCC(=O)N[C@H](C)CO` [A, R-methanandamide], the “activation of ERK and FAK (pERK2, pFAK over basal levels)” value was “results in the activation of extracellular signal regulated-kinase (ERK) as well as focal adhesion kinase (FAK)”.

System in the next series: not given
Experiment: not given
Conditions: not given
The compound `O=S(=O)(F)CCCCCCCc1ccc(OCc2ccccc2)cc1` returned a melting point of 35 to 38 °C.
Compound `O=S(=O)(F)CCCCCc1ccc(OCc2ccccc2)cc1` showed a melting point of 66 to 68 °C.
On the same count and under the same terms, the same measure for `O=S(=O)(F)CCCCCCCc1ccc(O)cc1`: 47 to 51 °C; for `O=S(=O)(F)CCCCCc1ccc(O)cc1`: 32 to 35 °C; for `O=S(=O)(F)CCCCOc1ccccc1`: 74 to 76 °C.
The compound `COS(=O)(=O)CCCCCCCc1ccc(OCc2ccccc2)cc1` had a melting point of 57 to 59 °C.
The same measure, in the same setting: in the case of `O=C(CCCOc1ccc(OCc2ccccc2)cc1)C(F)(F)F` it was 59 to 61 °C.
On the same count and under the same terms, the same measure for `O=C(CCCCCOc1ccccc1OCc1ccccc1)C(F)(F)F`: 31 to 32 °C.
`O=C(CCCCOc1ccccc1)C(F)(F)F` showed a melting point of 50 to 51 °C.
On the same count and under the same terms, the same measure for `O=C(CCCCOc1ccc(OCc2ccccc2)cc1)C(F)(F)F`: 95.5 to 96 °C; for `O=C(CCCCCOc1ccc(OCc2ccccc2)cc1)C(F)(F)F`: 59 to 60 °C; for `O=C(CCCCCCOc1ccc(OCc2ccccc2)cc1)C(F)(F)F`: 82 to 83 °C.
In the case of `O=C(CCCOc1ccccc1OCc1ccccc1)C(F)(F)F`, the melting point was in the range of 50 to 51 °C.
On the same count and under the same terms, the same measure for `O=C(CCCCOc1ccc(O)cc1)C(F)(F)F`: 63 to 64 °C; for `O=C(CCCCCCOc1ccc(O)cc1)C(F)(F)F`: 61 to 62 °C.
The same measure, in the same setting: the same measure for `O=C(CCCCOc1ccccc1O)C(F)(F)F`: 51 to 52 °C.
Still for that read-out and setting: in the case of `O=C(NCCCc1ccccc1)NCc1ccccn1` it was 89 to 90 °C; in that of `O=C(NCCCc1ccccc1)Nc1ccccn1`, 127 to 128 °C; in that of `Cc1nnc(C(=O)CCCCCCOc2ccccc2)o1`, 75 to 77 °C.
Consider `Cc1nnc(C(=O)CCCCCCOc2ccc(OCc3ccccc3)cc2)o1`, for which the melting point lay within 118 to 120 °C.
On to `Cc1nnc(C(=O)CCCCCCOc2ccc(O)cc2)o1`, for which the melting point lay within 134 to 135 °C.
In the case of `O=C1c2ccccc2S(=O)(=O)N1CCCCOc1ccccc1`, the melting point was in the range of 92 to 94 °C.
As to `O=C1c2ccccc2S(=O)(=O)N1CCCCOc1ccc(OCc2ccccc2)cc1`, the melting point was 82 to 84 °C.
Consider `O=C1c2ccccc2S(=O)(=O)N1CCCCOc1ccc(O)cc1`, for which the melting point fell in the range of 107 to 109 °C.
As for `Oc1cccc(OCCCC(O)(O)C(F)(F)F)c1` (hydrate or solvate), the melting point lay within 76 to 77 °C.

The test system of the next series is AMPA-injected dorsal hippocampus of adult Sprague-Dawley rats.
Experiment: not given
It counts as in vivo, rat. Particulars: co-injected with 63 nmol AMPA; 4-7 days post-injection.
As to `CCCCC/C=C\C/C=C\C/C=C\C/C=C\CCCC(=O)N[C@H](C)CO` [A, R-methanandamide], the “protection of postsynaptic GluR1 levels (reduction of GluR1 decline), average” value was 58%.

Staying with this series, now noted: co-injected with 63 nmol AMPA; A 250 nmol; B 0.75 nmol and C 75 nmol.
As to `CCCCC/C=C\C/C=C\C/C=C\C/C=C\CCCC(=O)N[C@H](C)CO` [A, R-methanandamide], the “reduction of spectrin BDPN evident 4-7 days post-insult” value was 78%.

Still in this series, the particulars now being: co-injected with AMPA, 4-7 days.
For `CCCCC/C=C\C/C=C\C/C=C\C/C=C\CCCC(=O)N[C@H](C)CO` [A, R-methanandamide], the “protection of presynaptic markers (synapsin II, synaptophysin)” value is listed as “protected by a similar level”.

For a further series, the system named is hippocampal slice cultures. Kind of series: In vitro excitotoxicity: AMPA insult in cultured hippocampal slices, immunoblot for BDPN and GluR1. Particulars: 100 μM AMPA 20 min, drug post-insult, 24 h; B/C 0.5 μM and 50 μM.
Experimental: Hippocampal slice cultures were infused with an excitotoxic level of AMPA for 20 min, followed by a 10-min washout period. […] The slices were harvested 24 h post-insult in groups of 6-8 each, along with untreated sister cultures, and assessed by immunoblotting for calpain-mediated spectrin breakdown product BDPN (A, C) and the postsynaptic marker GluR1 (B, D). Representative antigen staining is shown with a protein load control (con) from the same blots. Graphs contain integrated optical densities (mean±SEM) as determined by image analysis.
Chemicals and antibodies. […] Glutamatergic ligands and antagonists were obtained from Tocris (Ellisville, Mo.). […] Hippocampal slice cultures. Sprague-Dawley rats (Charles River Laboratories; Wilmington, Mass.) were housed following guidelines from National Institutes of Health. […] Slices were maintained in culture for a 15-20-day maturation period before experiments were initiated. […] Integrated optical density of the bands was determined at high resolution with BIOQUANT software (R & M Biometrics, Nashville, Tenn.). […] At such time, slices were rapidly harvested, homogenized in lysis buffer, and analyzed by immunoblot for BDPN, GluR1, and protein load control.
With `CCCCC/C=C\C/C=C\C/C=C\C/C=C\CCCC(=O)N[C@H](C)CO` [A, R-methanandamide], the “reduction of cytoskeletal damage (calpain-mediated spectrin breakdown product BDPN)” value worked out at 72%.
